For one series, the target named is CYP3A4 (Homo sapiens (Human), UniProt P08684). Put plainly: Time-dependent inhibition of CYP3A4 (TDI assay, human liver microsomes). It is filed as in vitro ADME. The settings on record: for CYP3A4 TDI % @ 10 μM: human liver microsomes, Midazolam substrate, 30 min with NADPH vs 0 min; for time-dependent inhibition on CYP3A4 (conclusion): conclusion drawn from Table 3, 10 μM. On the procedure: Effect Example 3. Time-Dependent Inhibition of CYP3A4
1. Preheating potassium phosphate buffer (K-buffer), pH 7.4: 100 mM potassium phosphate buffer (K-buffer) was prepared by mixing 9.5 mL of solution A with 40.5 mL of solution B, diluting to 500 mL with ultrapure water, and then adjusting to pH 7.4 with KOH or H3PO4, wherein the solution A (1M potassium dihydrogenphosphate) was prepared by dissolving 136.5 g of potassium dihydrogenphosphate in […] of ultrapure water.
2. Preparation of human liver microsome suspension (1.3 mg/mL, 1.3×, stock: 20 mg/mL): 100 μL of human liver microsome suspension (20 mg/mL) was added into […] of K-buffer.
3. Preparation of NADPH solution (4.167 mg/mL, 5 mM): 8.3 mg of NADPH was added into 2 mL of buffer.
4. Preparation of substrate solution (1.5× final): 1.5 μL of 10 mM Midazolam was added to 998.5 μL of K-buffer to yield the substrate mixture.
5. Preparation of 100× test compound, reference and blank control solutions: 3 μL of 10 mM stock solution of test compound was added to 27 μL of ACN; 3 μL of positive control stock solution was added to 27 μL of ACN; and 3 μL of DMSO was added to 27 μL of ACN to serve as blank control.
6. Primary preheating system: An NADPH-free system for 0 min incubation: 78 μL of 1.3× human liver microsome solution (step 2) was mixed with 1 μL of the 100× stock solutions of positive control, test compound, or blank control (step 5); A system containing NADPH for 30 min incubation: 78 μL of 1.3× human liver microsome solution (step 2) was mixed with 1 μL of the 100× stock solutions of positive control, test compound, or blank control (step 5).
7. Secondary preheating system: 150 μL of the substrate solution prepared in step 4 was added into a deep well plate together with the NADPH solution from step 3
8. The samples were preheated for 10 min in a 37° C. water bath.
9. Reaction procedure: (1) reaction for 0 min: 21 μL of K-buffer was added to the primary preheating system and mixed well without incubation; 20 μL of the mixture was immediately transferred into the plate of the secondary preheating system; after mixing, the secondary system was incubated in a 37° C. water bath for 15 min, and 60 μL of the reaction mixture was added into 120 μL of acetonitrile containing internal standard to terminate the reaction; and (2) reaction for 30 min: 21 μL of NADPH was added into the primary preheating system for a 30-min incubation after mixing; 20 μL of the mixture was added into the secondary preheating system prior to mixing; the mixture was incubated in a 37° C. water bath for 15 min, and 60 μL of the reaction mixture was added into 120 μL of acetonitrile containing internal standard to terminate the reaction.
10. After termination, the samples were shaken on a shaker at 600 rpm for 10 min and centrifuged at 5594 g for 15 min prior to LC-MS/MS analysis.
(Microsomes from liver hold many membrane-bound enzymes, among them those of drug oxidation.)

The target in a further series is Autotaxin (ATX) (Homo sapiens (Human), UniProt Q13822). Put plainly: ATX bioactivity assay (Amplex Red / choline oxidase / HRP fluorescence, LPC 16:0 substrate). It is filed as biochemical. The settings on record: 30 min room temperature. As to the method: Effect Example 1 Bioactivity Assay
Preparation and Treatment
Stock Solution Preparation
A 10 mM DMSO stock solution was formulated for each compound. A 30 mM DMSO stock solution was formulated for positive control HA130.
The DMSO stock solutions were stored at room temperature in a desiccator for a short period of time or at −20° C. for a long period of time.
All compounds were serially 3-fold diluted in DMSO from 10 μM to the 10th concentration.
A 1000× positive control (10 mM, HA130) and a 1000× negative control (100% DMSO) were prepared.
The plates were shaken for 5 min.
Preparation of 1× Reaction Buffer:
5× reaction buffer and cold water were mixed well in a volume ratio of 1:4.
Preparation of 20 U/mL Choline Oxidase Stock Solution:
1 tube of choline oxide in a kit was dissolved in 1× reaction buffer. The aliquots were frozen at −20° C.
Preparation of 200 U/mL Horseradish Peroxidase (HRP) Stock Solution:
1 tube of HRP in a kit was dissolved in 1 mL of 1× reaction buffer. The aliquots were frozen at −20° C.
Preparation of 20 mM Amplex® Red Reagent (for Detection) Stock Solution
Amplex Red reagent and DMSO were equilibrated at room temperature. 1 tube of Amplex Red reagent in a kit was dissolved in 200 μL of DMSO.
a) 2×ATX ([…]), 2×HRP ([…]), 2× choline oxidase (0.2 U/mL) were added to 1× reaction buffer.
b) 20 μL of the reaction mixture was added to the plate (PE, 6007270) (refer to step a).
c) 40 nL of diluent was added to the plate using Echo (refer to “Preparation”).
d) 2×LPC (16:0) (60 mM) and 2× Amplex® Red ([…]) were prepared using 1× reaction buffer.
e) 20 μL of the mixture was added to the plate (refer to step d).
f) The plate was shaken for 30 s and allowed to stand at room temperature for 30 min.
g) The plate was examined using Envision, and the procedure was as follows: Excitation at 530 nm; and Emission at 590 nm.
Formula for Calculating % Inhibition (Percent Inhibition Rate) as Follows:
FLU: Fluorescence (fluorescence reading)
FLUpositive: Average fluorescence value in positive control wells (10 μM HA130) in the plate.
FLUvehicle: Average fluorescence value in negative control wells (0.1% DMSO) in the plate.
Calculation of IC50 and Dose-Response Curve:
IC50 of the compounds was calculated via a non-linear regression line (dose-variable slope) fitted using % inhibition and log of compound concentration. The software used was Graphpad 5.0. Y=Bottom+(Top−Bottom)/(1+10^((Log IC50−X)×Hill Slope))
X: log of inhibitor concentration

Sequence of CYP3A4 (P08684 whole entry): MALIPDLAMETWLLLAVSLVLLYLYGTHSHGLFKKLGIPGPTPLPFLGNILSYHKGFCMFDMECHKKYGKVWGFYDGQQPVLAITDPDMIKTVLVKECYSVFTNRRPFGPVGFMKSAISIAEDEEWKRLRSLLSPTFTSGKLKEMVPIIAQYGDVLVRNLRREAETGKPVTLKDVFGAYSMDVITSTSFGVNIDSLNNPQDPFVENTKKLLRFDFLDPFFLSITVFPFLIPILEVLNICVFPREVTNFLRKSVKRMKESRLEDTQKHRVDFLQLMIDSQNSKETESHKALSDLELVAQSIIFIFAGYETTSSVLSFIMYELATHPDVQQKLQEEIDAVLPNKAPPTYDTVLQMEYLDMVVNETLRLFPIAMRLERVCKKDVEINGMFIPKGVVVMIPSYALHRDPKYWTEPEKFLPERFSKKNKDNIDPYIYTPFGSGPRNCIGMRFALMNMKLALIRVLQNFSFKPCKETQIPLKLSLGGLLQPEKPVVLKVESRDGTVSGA

On to `CCc1nn2ccc(N3CCN(CC(=O)N4CC(O)C4)CC3)nc2c1N(C)c1nc(-c2ccc(F)cc2)c(C#N)s1` [Compound S-0041, 2-((2-ethyl-5-(4-(2-(3-hydroxyazetidin-1-yl)-2-oxoethyl)piperazin-1-yl)pyrazolo[1,5-a]pyrimidin-3-yl)(methyl)amino)-4-(4-fluorophenyl)thiazole-5-carbonitrile], for which, at CYP3A4, the “CYP3A4 TDI % @ 10 μM” value was −4.00% and the “time-dependent inhibition on CYP3A4 (conclusion)” value (“time-dependent inhibition” for short) is “no time-dependent inhibition on CYP3A4”.
Consider `CCc1nn2c(C)cc(N3CCN(CC(=O)N4CC(O)C4)CC3)nc2c1N(CC)c1nc(-c2ccc(F)cc2)c(C#N)s1` [Compound S-0069, 2-(ethyl(2-ethyl-5-(4-(2-(3-hydroxyazetidin-1-yl)-2-oxoethyl)piperazine-1-yl)-7-methylpyrazolo[1,5-a]pyrimidin-3-yl)amino)-4-(4-fluorophenyl) thiazole-5-carbonitrile], for which the IC50 – broadly, the concentration that gives 50% inhibition – against Autotaxin (ATX) came to 43 nM.
At Autotaxin (ATX), `CN(c1nc(-c2ccc(F)cc2)c(C#N)s1)c1c2cc(N3CCN(CC(=O)N4CC(O)C4)CC3)cc(F)c2nn1C1CC1` [Compound S-0126, 2-((2-cyclopropyl-7-fluoro-5-(4-(2-(3-hydroxyazetidin-1-yl)-2-oxoethyl)piperazin-1-yl)-2H-indazol-3-yl)(methyl)amino)-4-(4-fluorophenyl)thiazole-5-carbonitrile] registered an IC50 of 100 nM.
Consider `CCn1nc2ncc(N3CCN(CC(=O)N4CC(O)C4)CC3)cc2c1N(C)c1nc(-c2ccc(F)cc2)c(C#N)s1` [Compound S-0043, 2-((2-ethyl-5-(4-(2-(3-hydroxyazetidin-1-yl)-2-oxoethyl)piperazin-1-yl)-2H-pyrazolo[3,4-b]pyridin-3-yl)(methyl)amino)-4-(4-fluorophenyl)thiazole-5-carbonitrile], for which, at CYP3A4, the “CYP3A4 TDI % @ 10 μM” value was 12.38% and the “time-dependent inhibition” value is recorded as “no time-dependent inhibition on CYP3A4”.
`O=C1S/C(=C\c2ccc(OCc3cccc(B(O)O)c3)cc2)C(=O)N1Cc1ccc(F)cc1` [HA130, reference compound] yielded an IC50 against Autotaxin (ATX) of 24 nM.
For the compound `CCn1nc2cnc(N3CCN(CC(=O)N4CC(O)C4)CC3)cc2c1N(C)c1nc(-c2ccc(F)cc2)c(C#N)s1` [Compound S-0044, 2-((2-ethyl-5-(4-(2-(3-hydroxyazetidin-1-yl)-2-oxoethyl)piperazin-1-yl)-2H-pyrazolo[3,4-c]pyridin-3-yl)(methyl)amino)-4-(4-fluorophenyl) thiazole-5-carbonitrile], at CYP3A4, the “CYP3A4 TDI % @ 10 μM” value was 15.3% and the “time-dependent inhibition” value is listed as “no time-dependent inhibition on CYP3A4”.
On to `CCc1nn2c(C)cc(N3CCN(CC(=O)N4CC(O)C4)C[C@H]3C)nc2c1N(C)c1nc(-c2ccc(F)cc2)c(C#N)s1` [Compound S-0070, (R)-2-((2-ethyl-5-(4-(2-(3-hydroxyazetidin-1-yl)-2-oxoethyl)-2-methylpiperazine-1-yl)-7-methylpyrazolo[1,5-a]pyrimidin-3-yl)(methyl)amino)-4-(4-fluorophenyl)thiazole-5-carbonitrile], for which, on Autotaxin (ATX), the IC50 was found to be 36 nM.
The compound `CCc1nn2ccc(N3CCN(CC(=O)N4CC(O)C4)CC3)cc2c1N(C)c1nc(-c2ccc(F)cc2)c(C#N)s1` [Compound S-0040, 2-((2-ethyl-5-(4-(2-(3-hydroxyazetidin-1-yl)-2-oxoethyl)piperazin-1-yl)pyrazolo[1,5-a]pyridin-3-yl)(methyl)amino)-4-(4-fluorophenyl)thiazole-5-carbonitrile] yielded an IC50 against Autotaxin (ATX) of 767 nM.
In turn, `CCc1nn2ccc(N3CCN(CC(=O)N4CC(C)(O)C4)CC3)nc2c1N(C)c1nc(-c2ccc(F)cc2)c(C#N)s1` [Compound S-0120, 2-((2-ethyl-5-(4-(2-(3-hydroxy-3-methylazetidin-1-yl)-2-oxoethyl)piperazin-1-yl)pyrazolo[1,5-a]pyrimidin-3-yl)(methyl)amino)-4-(4-fluorophenyl)thiazole-5-carbonitrile] came in with an IC50 on Autotaxin (ATX) of 41 nM.
Still for that read-out and setting: next, `CCc1nn2c(C)cc(N3CCN(CC(=O)N4CC(O)C4)[C@@H](C)C3)nc2c1N(C)c1nc(-c2ccc(F)cc2)c(C#N)s1` [Compound S-0075, (S)-2-((2-ethyl-5-(4-(2-(3-hydroxyazetidin-1-yl)-2-oxoethyl)-3-methylpiperazin-1-yl)-7-methylpyrazolo[1,5-a]pyrimidin-3-yl)(methyl)amino)-4-(4-fluorophenyl)thiazole-5-carbonitrile]: 88 nM; `CCc1nn2ccc(N3CCN(CC(=O)N4CC(O)C4)C(=O)C3)nc2c1N(C)c1nc(-c2ccc(F)cc2)c(C#N)s1` [Compound S-0104CP, 2-((2-ethyl-5-(4-(2-(3-hydroxyazetidin-1-yl)-2-oxoethyl)-3-oxopiperazin-1-yl)pyrazolo[1,5-a]pyrimidin-3-yl)(methyl)amino)-4-(4-fluorophenyl)thiazole-5-carbonitrile]: 256 nM; `CCc1nn2ccc(N3CCN(CC(=O)N4CC(O)C4)CC3)nc2c1N(C)c1nc(-c2ccc(F)c(F)c2)c(C#N)s1` [Compound S-0121, 4-(3,4-difluorophenyl)-2-((2-ethyl-5-(4-(2-(3-hydroxyazetidin-1-yl)-2-oxoethyl)piperazin-1-yl)pyrazolo[1,5-a]pyrimidin-3-yl)(methyl)amino)thiazole-5-carbonitrile]: 61 nM.
The compound `CCc1nn2c(C)cc(N3CCN(CC(=O)N4CC(O)C4)C[C@@H]3C)nc2c1N(C)c1nc(-c2ccc(F)cc2)c(C#N)s1` [Compound S-0071, (S)-2-((2-ethyl-5-(4-(2-(3-hydroxyazetidin-1-yl)-2-oxoethyl)-2-methylpiperazin-1-yl)-7-methylpyrazolo[1,5-a]pyrimidin-3-yl)(methyl)amino)-4-(4-fluorophenyl)thiazole-5-carbonitrile] displayed an IC50 on Autotaxin (ATX) of 46 nM.
Same read-out and setting: to `CC(C)n1nc2c(F)cc(N3CCN(CC(=O)N4CC(O)C4)CC3)cc2c1N(C)c1nc(-c2ccc(F)cc2)c(C#N)s1` [Compound S-0125, 2-((7-fluoro-5-(4-(2-(3-hydroxyazetidin-1-yl)-2-oxoethyl)piperazin-1-yl)-2-isopropyl-2H-indazol-3-yl)(methyl)amino)-4-(4-fluorophenyl)thiazole-5-carbonitrile] belongs 178 nM.

Values taken from patent US11591342B2, “Heterocyclic compound, application thereof and pharmaceutical composition comprising same” (SUZHOU SINOVENT PHARMACEUTICALS CO., LTD., priority 2018, dated 2023).
